Assays:
[1] = Porcine scleral permeability (modified Ussing chamber); assay type: in vitro ADME; settings: pig, pH 7.4, porcine excised eye tissue, 10 μg/mL compound on donor side
Procedure: Scleral permeability was measured using a modified Ussing chamber assembly in the initial eye drop formulation containing 1% hydroxypropyl methyl cellulose, 0.2% tyloxapol, 3.4% dextrose, 0.006% benzalkonium chloride, and 0.025% ethylenediaminetetraacetic acid with 1% DMSO in PBS (pH 7.4). Porcine excised eye tissues were mounted in the chambers such that the episcleral side faced the donor chamber and the retinal side faced the receiver chamber. The chambers were filled with equal volumes of eye drop formulation, with (donor side) or without (receiver side) 10 μg/mL compound. After 24 hours tissue was removed from the chamber and the receiver side (“vitreous”) sampled. Tissue was dissected into sclera, choroid/RPE, and retina and homogenised. A tracer (SPHINX7; WO 2015/159103) was added, and tissue extracted by acetonitrile extraction as described in Batson et al (2017). Compounds were then analysed by mass spectrometry as described in Batson et al (2017).
To determine whether compounds could get across the sclera of a larger animal, porcine sclera was clamped between two chambers and compounds were added to the sclera with eye drop formulation added to the bottom chamber and compounds added to the top chamber. After 24 hours, the fluid from the bottom chamber (vitreous) and the retinal tissue was isolated and compounds purified by methanol or acetonitrile extraction and HPLC.

[2] = tested on: VEGF-A165a isoform; assay: VEGF isoform specific ELISA in retinal pigmented epithelial cells; assay type: cell-based, human; settings: FIG. 5
Procedure: 96-well clear microplate (high sensitivity thermo immulon or costar 9018) were coated with 100 μL of 10 μg/mL VEGFxxxb or 0.25 μg/mL anti-hVEGF165a per well. The plate was sealed with parafilm and incubated overnight on the shaker at room temp. Each well was aspirated and washed with Wash Buffer (200 μL PBS-Tween 0.05%), […] for a total of three washes. After the last wash, remaining Wash Buffer was removed by inverting the plate and blotting it against clean paper towels. Plates were blocked by adding 100 μL of Reagent Diluent (1% BSA/PBS) to each well and incubated at room temp on a shaker for 2 hours. The aspiration/wash step was repeated. 100 μL of standards or samples in 1% BSA/PBS were added to each well, covered with parafilm and incubated 2 hours at room temperature. The aspiration/wash was repeated and 100 μL of 100 ng/mL of Detection Antibody (BAF293), diluted in Reagent Diluent, was added to each well which were covered with parafilm and incubated 2 hours at room temperature. The aspiration/wash was repeated and 100 μL of the working dilution of Streptavidin-HRP (1:200 dilution) was added to each well. […] The optical density of each well was measured immediately, using a microplate reader set to 450 nm.
To determine whether compound 1 could switch splicing of VEGF isoforms, VEGF was measured in retinal pigmented epithelial cells by isoform specific ELISA.

[3] = Non-human primate pharmacokinetic study (eye drops); assay type: in vivo, Cynomolgus monkeys
Procedure: Non-human primate pharmacokinetic study Cynomolgus monkeys were treated bidaily for 20 days with 35 μL eye drops of compound 1 at 0.5 mg/mL, 1.0 mg/mL or 1.5 mg/ml as indicated, in the eye drop formulation containing 7% poly-oxyl-40-stearate and 4% dextrose in PBS. Blood and aqueous samples were collected 1 h, 4 h, 8 h, 10 h and 14 h after eye drop administration on day 1 and at the end of the study. 1 h after the final eye drop on day 21, the animals were euthanised and ocular tissues and blood were collected. The retina was dissected from the choroid and sclera, incisions made, and laid out flat. Retina, RPE/choroid and sclera eye compartments were dissected into 7 different areas. All samples were weighed. Compound was extracted by reverse phase extraction from the retina and choroid/sclera samples and the plasma as above, and amount determined by mass spectrometry in different areas of the eye and in the blood. Amounts per milligram of tissue or nM for aqueous and blood were calculated for each sample, and averaged.
To determine whether compound 1 could penetrate into the retina of primates we dosed cynomologous monkeys with 0.5, 1.0 or 1.5 mg/mL compound 1 twice a day for 21 days. […] Aqueous taps and plasma samples were taken during the treatment and compound 1 measured in the fluid. […] To determine if these doses were sufficient to inhibit angiogenic VEGF-A isoform expression, retinal tissue was subjected to immunoblotting using pan-VEGF or VEGF-A165b antibodies.

Papp at 24 h, 10 μg/mL [1]: 0.067 ×10⁻⁶ cm/s
half-life ([3]; cynomolgus, cynomolgus monkey, aqueous humour, topical or ocular, monkey, after administration of 1.5 mg/mL eye drop): 2 h
Concentrations in retina, choroid, vitreous and other tissues of the eye ([3]; monkey, 0.5, 1.0 or 1.5 mg/mL twice a day for 21 days): significant concentrations
melting point: 148 to 150 °C
Compound: Cn1ccc(CN2CCN(c3ccc(C(F)(F)F)cc3NC(=O)c3ccc(C4CCOCC4)o3)CC2)n1 [Compound 1, N-(2-(4-((1-methyl-1H-pyrazol-3-yl)methyl)piperazin-1-yl)-5-(trifluoromethyl)phenyl)-5-(tetrahydro-2H-pyran-4-yl)furan-2-carboxamide]
Expression of pro-angiogenic VEGF-A165a isoform [2]: reduces expression of the pro-angiogenic VEGF-A165a isoform in a dose dependent manner
Concentrations in aqueous taps and plasma samples ([3]; monkey, all three doses (0.5, 1.0, 1.5 mg/mL)): Significant concentrations were seen at all three doses

Source: patent publication US12024504B2, “1-methyl-1H-pyrazol-3-yl derivatives for use in the treatment of neovascular diseases” (EXONATE LIMITED, priority 2021, dated 2024)
